In patent EP2340832A1, “Morphinan-6-one compounds for the treatment or prevention of neurodegenerative diseases” (Universität Innsbruck, priority 2009, dated 2011):
Like-named read-outs stand apart in the source and are kept apart here.

Experiments:
[1] = test system: frontal cortex synaptosomes; experiment: ACh release from synaptosomes (15 mM K+-evoked [3H]-ACh release, superfusion); assay type: cell-based, male Sprague Dawley rats; conditions: 0.1 to 100 µM
Procedure: Preparation of synaptosomes: synaptosomes were prepared from brain frontal cortex of male Sprague Dawley rats (4 months old). The frontal cortex was rapidly dissected on ice and homogenized in 40 volumes of 0.32 M sucrose buffered at pH 7.4 with 0.01 M sodium phosphate. The homogenate was centrifuged at 1,000 g for 5 min. The crude synaptosomal pellet was obtained by centrifugation of the supernatant at 15,000 g for 20 min and was resuspended in 5 ml basal medium (125 mM Nacl, 3 mM KCI, 1.2 mM MgS04, 1.2 mM CaCl2, 1.0 mM NaH2PO4, 22 mM NaHCO3 and 10 mM glucose) which had been gassed with 95% O2 - 5% CO2 at 37 °C, pH 7.2 - 7.4.
Superfusion protocol: The synaptosomal suspension was incubated with [^3H]-choline (0.03 µM, 17.5x10^6 Bq/g) for 15 min at 37 °C. Then, the suspension was diluted (1:8) and aliquots were applied on filters in a continuous superfusion system with parallel chambers maintained at 37 °C. The media used for superfusion were basal medium and 15 mM K^+-containing stimulation medium. Both media were supplemented with ACh (1 µM) to facilitate the effectiveness of an allosteric potentiating ligand at the nicotine receptor and with atropine (0.1 µM) to block M2 presynaptic receptors. Synaptosomes were superfused with basal medium for 30 min to reach a constant outflow of [^3H]-ACh. Under these experimental conditions, the radioactivity released consisted largely of newly synthesized [^3H]-ACh. The K^+-stimulated release of [^3H]-ACh was determined in 2 subsequently collected fractions: 6 min basal release (superfusion with basal medium) and 6 min K^+-evoked release (superfusion for 1.5 min with 15 mM K^+-containing medium followed by […] basal medium). The test compounds galantamine, 4 and 2 were present in the superfusion medium concomitantly with 15 mM K^+ (for 1.5 min). Basal release of [^3H]-ACh (continuous superfusion with basal medium) was determined by collection of a 6 min sample followed by four subsequent 2 min samples. Aliquots of samples were mixed with scintillation liquid and the radioactivity quantified with a scintillation counter. The radioactivity bound to the filters was also measured.
Statistical analysis: The amount of [^3H]-ACh released in each sample was calculated as fraction of total synaptosomal tritium at the start of the respective collection period (tritium in the sample / sum of tritium in the respective fractions and in the synaptosomes on the filter). K^+-evoked release was expressed as percentage of basal release rate. Each n=1 represents the mean of an experiment with one synaptosomal preparation in at least 3 superfusion chambers. Statistical significance of group variances was calculated by one way ANOVA followed by Bonferroni's test.

[2] = target: T1, electric eel AChE (EC 3.1.1.7) (Electrophorus electricus, UniProt O42275); experiment: Spectrophotometric assay for AChE inhibitory activity (modified Ellman's method); assay type: biochemical
T1 construct: purchased Sigma-Aldrich, Germany

δ opioid receptors = target: T2, δ opioid receptors (Rattus norvegicus, UniProt P33533); experiment: Opioid receptor binding assay, [3H][Ile5,6]deltorphin II, rat brain membranes; design: species or system Sprague-Dawley rat
T2 construct: Membrane fractions were prepared from Sprague-Dawley rat or guinea pig brains; from tissue; host or cells: Sprague-Dawley rat brain (without cerebella) membranes
Procedure: (§1) Briefly, brains without cerebella were homogenised on ice in 5 volumes of ice-cold 50 mM Tris-HCI buffer (pH 7.4) and diluted in 30 volumes of the same buffer. After centrifugation at 40,000 x g for 20 min at 4°C, the pellets were resuspended in 30 volumes of Tris-HCI buffer and incubated at 37 °C for 30 min (rat brain) or for 10 min (guinea pig brain). The centrifugation step was repeated and the final pellets were resuspended in 5 volumes of 50 mM Tris-HCI buffer (pH 7.4) containing 0.32 M sucrose to give a protein concentration of 4 - 6 mg/ml. Protein concentration was determined by the method of Bradford using bovine serum albumin as standard.
(§2) Binding experiments were performed in 50 mM Tris-HCI buffer (pH 7.4) in a final volume of 1 ml containing 0.3 - 0.5 mg protein and different concentrations of the compounds. […] Guinea pig brain membranes were incubated with [^3H]U69,593 (30 min, 30 °C). Non-specific binding was determined in the presence of 10 µM unlabeled naloxone. […] Inhibition constant (Ki) values were calculated from competition binding curves using GraphPad Prism (San Diego, CA, USA) program. The values are expressed as the mean ± S.E.M of 2-4 independent experiments, each performed in duplicate.
(§3) The morphinan-6-one compounds of the present invention were evaluated in in vitro receptor binding assays for their interaction abilities with µ, δ and k opioid receptors. […] The affinities of the compounds at k opioid receptors were determined by displacement of [^3H]U69,593 using guinea pig brain membranes.

k opioid receptors = target: T3, k opioid receptors (Cavia porcellus, UniProt P41144); experiment: Opioid receptor binding assay, [3H]U69,593, guinea pig brain membranes
T3 construct: Membrane fractions were prepared from Sprague-Dawley rat or guinea pig brains; from tissue; host or cells: guinea pig brain (without cerebella) membranes
Procedure: as §1, §2, §3

[3] = target: T4, σ receptors labelled by [^3H](+)-pentazocine (σ1) (Cavia porcellus, UniProt Q60492); experiment: Sigma receptor binding assay, [3H](+)-pentazocine; design: species or system guinea pig
T4 construct: from tissue; host or cells: guinea pig brain membranes
Procedure: (§4) Filters were washed three times with 5 ml of ice-cold 10 mM Tris-HCI buffer (pH 8). The bound radioactivity was measured by liquid scintillation counting (Beckman Coulter™ LS6500). […] The values are expressed as the mean ± S.E.M of 2 - 4 independent experiments, each performed in duplicate.

[4] = target: σ receptors labelled by [^3H]DTG (σ1 + σ2); experiment: Sigma receptor binding assay, [3H]DTG; conditions: read-out: IC50 ± SEM [^3H]DTG (σ1 + σ2); guinea pig brain membranes; compounds 1-5 tested up to 10 µM
Procedure: as §4

[5] = test system: extracellular ACh concentration in the nucleus accumbens; conditions: for 0AUC120 min (% increase x min) Mean ± SEM: 0 to 120 min; for Increase in ACh release (Peak increase as % of basal output): nucleus accumbens
C57BL/6N female mice [6] = experiment: Object recognition task; conditions: for object recognition (memory): normal mice; for effect on scopolamine-induced impairment of object recognition: scopolamine-pretreated mice, dose not given
µ opioid receptor [7] = target: T5, µ opioid receptor (Rattus norvegicus, UniProt P33535); experiment: Opioid receptor binding assay, [3H]DAMGO, rat brain membranes; design: Membrane fractions were prepared from Sprague-Dawley rat or guinea pig brains; from tissue; host or cells: Sprague-Dawley rat brain (without cerebella) membranes; species or system Sprague-Dawley rat
Procedure: as §1, §2, §3

δ receptor = target: T6, δ receptor (Rattus norvegicus, UniProt P33533); experiment: [35S]GTPγS functional assay, rat brain membranes, δ receptor; assay type: biochemical, Sprague-Dawley rat
T6 construct: Membrane fractions were prepared from Sprague-Dawley rat or guinea pig brains; from tissue; host or cells: Sprague-Dawley rat brain (without cerebella) membranes
Procedure: (§5) Membrane fractions were prepared from Sprague-Dawley rat or guinea pig brains as described above. To determine binding of [^35S]GTPyS, rat or guinea pig brain membranes (10 µg of protein) were incubated for 60 min at 30 °C in Tris-EGTA buffer (50 mM Tris-HCl buffer, 3 mM MgCl2, 1 mM EGTA, […], pH 7.4) containing 30 µM GDP, 0.05 nM [^35S]GTPyS and appropriate concentrations of the respective compounds according to the present invention in a final volume of 1 ml. The reaction was terminated by vacuum filtration through Whatman GF/B glass fibre filters. Filters were washed three times with ice-cold 50 mM Tris-HCI buffer (pH 7.4) and the bound radioactivity was measured by liquid scintillation counting (Beckman Coulter™ LS6500). Basal activity was determined by subtracting the non-specific binding (measured in the presence of 100 µM unlabelled GTPyS) from the total binding (measured in the absence of the compound).
(§6) Stimulation produced by the compound is given as percentage of the basal activity (given as 100%). Functional data, EC50 (nM; half maximal effective concentration) and maximal stimulation Emax (% stimulation over basal level; maximal effective concentration), were calculated by using nonlinear regression analysis and sigmoidal curve fitting GraphPad Prism (San Diego, CA, USA) program. The values are expressed as the mean ± S.E.M of at least 3 independent experiments, each performed in triplicate. Statistical analysis was carried out using SPSS software (SPSS Inc., Chicago, lL, USA) and the Student T-test was used to compare different assay conditions. A ρ value < 0.05 was considered statistically significant.

K receptor = target: T7, K receptor (Cavia porcellus, UniProt P41144); assay type: biochemical, guinea pig
T7 construct: Membrane fractions were prepared from Sprague-Dawley rat or guinea pig brains; from tissue; host or cells: guinea pig brain (without cerebella) membranes

C57BL/6N female mice [8] = experiment: Open field (locomotor activity); assay type: in vivo
From the text: Each mouse was used only once. […] . […] Thereafter it was replaced by the obturator.
The open field consisted of a transparent plastic box with white floor (41 x 41 x 41 cm) equipped with an automated activity monitoring system (True Scan, Coulbourn Instruments, Allentown, Pennsylvania, USA). The illumination at floor level was 150 lux. Mice were individually placed into the centre of the open field and their behaviours were tracked with the activity monitoring system. The time of locomotor activity, the overall distance travelled by the mice and the fraction of locomotor activity in the center area (center distance and center time) were monitored for 10 min. The arena was thoroughly cleaned with wet paper towels and dried at the end of each test.
Statistical analysis: All data from behavioural studies are shown as mean ± SEM. Statistical analysis was performed using the analysis of variance (ANOVA), followed by post hoc multiple comparisons Tukey-Kramer test, except comparison of alternation rates with the theoretical value of chance (defined as 50%) which was evaluated by Wilcoxon signed rank test. All statistical analyses were carried out by using the Graphpad Prism Program, version 4.0, Graphpad software, Inc.

C57BL/6N female mice [9] = experiment: T-maze continuous alternation
µ opioid receptor [10] = target: T5, µ opioid receptor; experiment: [35S]GTPγS functional assay, rat brain membranes, µ receptor; assay type: biochemical, Sprague-Dawley rat; design: Membrane fractions were prepared from Sprague-Dawley rat or guinea pig brains; from tissue; host or cells: Sprague-Dawley rat brain (without cerebella) membranes; conditions: rat brain membranes
Procedure: as §5, §6

[11] = scopolamine 0.033 µmol, compound 0.1 µmol i.c.v.

T2 sequence (P33533 whole entry): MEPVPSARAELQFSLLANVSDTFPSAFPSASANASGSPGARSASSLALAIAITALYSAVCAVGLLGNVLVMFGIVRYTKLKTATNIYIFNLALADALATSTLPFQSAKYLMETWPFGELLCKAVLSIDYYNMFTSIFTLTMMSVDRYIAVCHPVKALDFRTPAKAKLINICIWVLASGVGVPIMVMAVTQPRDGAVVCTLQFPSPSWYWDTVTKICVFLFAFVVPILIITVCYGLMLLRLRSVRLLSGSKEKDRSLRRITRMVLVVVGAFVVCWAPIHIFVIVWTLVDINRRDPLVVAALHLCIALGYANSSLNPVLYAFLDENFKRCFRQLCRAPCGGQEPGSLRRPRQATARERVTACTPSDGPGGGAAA
T3 sequence (P41144 whole entry): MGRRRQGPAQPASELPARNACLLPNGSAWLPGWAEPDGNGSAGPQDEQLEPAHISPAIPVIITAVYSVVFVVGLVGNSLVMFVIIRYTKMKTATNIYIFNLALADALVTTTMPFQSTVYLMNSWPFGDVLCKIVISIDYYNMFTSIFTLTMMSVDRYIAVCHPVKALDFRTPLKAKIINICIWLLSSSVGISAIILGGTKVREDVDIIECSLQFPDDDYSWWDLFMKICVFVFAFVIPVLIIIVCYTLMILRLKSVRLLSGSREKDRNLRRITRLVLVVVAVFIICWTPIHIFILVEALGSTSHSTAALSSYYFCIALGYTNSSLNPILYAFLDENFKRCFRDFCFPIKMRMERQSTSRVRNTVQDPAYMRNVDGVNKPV
T7 sequence (P41144 whole entry): as above
T5 sequence (P33535 whole entry): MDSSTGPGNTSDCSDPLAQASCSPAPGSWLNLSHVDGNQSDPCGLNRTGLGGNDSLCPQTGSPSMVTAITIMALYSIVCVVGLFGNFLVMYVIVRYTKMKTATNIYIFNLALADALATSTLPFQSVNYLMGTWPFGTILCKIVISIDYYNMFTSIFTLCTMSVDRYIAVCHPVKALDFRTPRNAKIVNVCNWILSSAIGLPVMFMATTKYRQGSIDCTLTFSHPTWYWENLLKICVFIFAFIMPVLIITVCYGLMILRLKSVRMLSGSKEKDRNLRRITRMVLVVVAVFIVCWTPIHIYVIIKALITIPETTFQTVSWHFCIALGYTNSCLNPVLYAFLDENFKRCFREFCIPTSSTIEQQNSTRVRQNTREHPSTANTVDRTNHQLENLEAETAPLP
T6 sequence (P33533 whole entry): as the sequence (P33533 whole entry) above
T4 sequence (Q60492 whole entry): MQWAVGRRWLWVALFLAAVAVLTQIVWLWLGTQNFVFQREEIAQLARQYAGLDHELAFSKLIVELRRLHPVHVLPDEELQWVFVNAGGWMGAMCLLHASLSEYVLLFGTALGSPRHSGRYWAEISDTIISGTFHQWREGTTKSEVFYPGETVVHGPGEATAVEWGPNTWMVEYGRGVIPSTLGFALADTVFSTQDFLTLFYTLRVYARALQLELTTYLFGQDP
T1 sequence (O42275 24-633): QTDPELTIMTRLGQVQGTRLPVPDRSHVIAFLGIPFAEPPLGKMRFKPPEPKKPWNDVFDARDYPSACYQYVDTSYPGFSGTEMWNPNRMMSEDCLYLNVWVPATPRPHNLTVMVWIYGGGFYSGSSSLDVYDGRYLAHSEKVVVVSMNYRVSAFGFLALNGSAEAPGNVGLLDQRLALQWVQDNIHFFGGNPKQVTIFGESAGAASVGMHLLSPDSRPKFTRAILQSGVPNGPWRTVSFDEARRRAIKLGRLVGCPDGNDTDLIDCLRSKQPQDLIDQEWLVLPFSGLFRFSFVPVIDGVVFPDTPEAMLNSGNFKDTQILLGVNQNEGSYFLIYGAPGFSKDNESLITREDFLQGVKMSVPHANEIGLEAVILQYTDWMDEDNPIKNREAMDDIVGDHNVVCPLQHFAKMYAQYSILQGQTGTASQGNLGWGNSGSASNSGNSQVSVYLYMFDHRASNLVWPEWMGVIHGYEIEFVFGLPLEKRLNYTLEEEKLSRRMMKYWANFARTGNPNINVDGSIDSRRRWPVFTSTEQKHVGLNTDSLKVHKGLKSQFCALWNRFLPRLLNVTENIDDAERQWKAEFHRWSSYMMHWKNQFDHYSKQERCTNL

O=CN1CC[C@]23c4c5cccc4OC2C(=O)CC[C@H]3[C@H]1C5 (stereo in doubt) [Compound 3, 4,5-epoxy-N-formylmorphinan-6-one]
effect on K+-evoked ACh release in frontal-cortex synaptosomes [1]: did not influence ACh release
IC50 [2]: 60.3 µM
Ki (δ opioid receptors): > 10 µM
Ki (δ opioid receptors; read-out: Opioid binding affinities Ki δ receptor, [3H][Ile5,6]deltorphin II, rat brain membranes): > 10 µM
Ki (k opioid receptors): > 10 µM
Ki (k opioid receptors; read-out: Opioid binding affinities Ki κ receptor, [3H]U69,593, guinea pig brain membranes): > 10 µM
IC50 [3]: > 10 µM
IC50 [4]: > 10 µM
effect on ACh in the superfusate (in words) ([5]; 1 µmol i.c.v.): increased ACh release
effect on ACh in the superfusate (in words) ([5]; 2 µmol i.c.v.): did not influence ACh up to 160 min followed by a decline thereafter
0AUC120 min (% increase x min) Mean ± SEM ([5]; Dose 1 µmol i.c.v.): 410 ± 227 % increase x min
Increase in ACh release (Peak increase as % of basal output) ([5]; Dose 1 µmol i.c.v.): 123 ± 91 %
0AUC120 min (% increase x min) Mean ± SEM ([5]; Dose 2 µmol i.c.v.): 160 ± 140 % increase x min
Increase in ACh release (Peak increase as % of basal output) ([5]; Dose 2 µmol i.c.v.): 75 ± 73%
object recognition (memory) (C57BL/6N female mice [6]; 0.02 µmol i.c.v.): did not influence the object recognition
effect on scopolamine-induced impairment of object recognition (C57BL/6N female mice [6]): ineffective
Ki (µ opioid receptor [7]): > 10 µM
Ki (µ opioid receptor [7]; read-out: Opioid binding affinities Ki µ receptor, [3H]DAMGO, rat brain membranes): > 10 µM

C=CCN1CC[C@]23CC(=O)CC[C@@]2(OC)[C@H]1Cc1cccc(OC)c13 [Compound 5, 4,14-dimethoxy-N-allyl-morphinan-6-one]
IC50 ([2]; 96-well microplate, 1% DMSO, read-out: AChE inhibitory activity IC50): 81.9 µM
Ki (δ opioid receptors): 1.25 µM
Ki (k opioid receptors): 0.328 µM
[35S]GTPγS binding on co-incubation with naltrindole versus antagonist alone (δ receptor; 10 µM each): did not produce any significant increase
effect on [35S]GTPγS binding stimulated by SNC 80 (δ receptor; compound 10 µM, SNC 80 10 µM): did not cause any significant changes
effect on [35S]GTPγS binding stimulated by U69,593 (K receptor): no significant effect
[35S]GTPγS binding on co-incubation with Nor-BNI versus antagonist alone (K receptor; 10 µM each, guinea pig brain membranes): did not produce any significant increase
[35S]GTPγS binding in the presence of the compound alone (K receptor; guinea pig brain membranes, compared with U69,593): no increase
IC50 [3]: > 10 µM
IC50 [4]: > 10 µM
general locomotion in the open field (move distance, move time) (C57BL/6N female mice [8]; 0.1 µmol i.c.v., 10 min): did not influence
fraction of locomotor activity in the central zone (C57BL/6N female mice [8]; dose not given): did not influence
effect on ACh in the superfusate (in words) ([5]; 0.5 µmol i.c.v.): did not increase brain ACh
effect on ACh in the superfusate (in words) ([5]; 1 µmol i.c.v.): short peak increase
0AUC120 min (% increase x min) Mean ± SEM ([5]; Dose 1 µmol i.c.v.): 158 ± 111 % increase x min
Increase in ACh release (Peak increase as % of basal output) ([5]; Dose 1 µmol i.c.v.): 51 ± 43%
object recognition (memory) (C57BL/6N female mice [6]; 0.1 µmol i.c.v.): increased the exploration ratio
effect on scopolamine-induced impairment of object recognition (C57BL/6N female mice [6]): ineffective
spontaneous alternation rate (C57BL/6N female mice [9]; normal mice, 0.1 µmol i.c.v.): did not influence alternation
effect on scopolamine-enhanced running time (C57BL/6N female mice [9]; [11]): further increased
effect on scopolamine-impaired alternation (C57BL/6N female mice [9]; [11]): had no effect
Ki (µ opioid receptor [7]): 0.0672 µM
binding to opioid receptor µ (in words) (µ opioid receptor [7]): some µ opioid receptor affinity
selectivity among opioid receptor types (µ opioid receptor [7]; from binding, Table 3): moderate selectivity for the µ type
[35S]GTPγS binding on co-incubation with cyprodime versus antagonist alone (µ opioid receptor [10]; 10 µM each): did not produce any significant increase
effect on [35S]GTPγS binding stimulated by DAMGO (µ opioid receptor [10]; compound 10 µM, DAMGO 10 µM): significantly decreased
[35S]GTPγS binding in the presence of the compound alone (µ opioid receptor [10]; compared with DAMGO): no increase
